# Laboratory results: patent US20240285785A1, “TARGETING SORTILIN” (priority 2022, published 2024)
# Test: Murine serum stability assay
# Assay type: in vitro ADME, mouse (CD-1)
# Conditions: male, CD-1, mouse, mouse serum, male CD-1 mouse serum, 37° C.; read-out: Murine serum stability assay, T1/2
# Method: Serum was drawn from male CD-1 mice by Pharmidex. Lyophilized peptides were solubilized in DMSO and then further diluted into male mouse (CD-1) serum at 37° C. in duplicates. The reaction was incubated at 37° C. and samples extracted at 6 time points: 0, 0.16, 0.5, 1, 3, and 6 hrs. Acetonitrile (ACN) with internal standard (tolbutamide) was added to stop the incubation. Samples were centrifuged, and the supernatant was analyzed by HPLC-MS/MS for the parent compound.
row,Structure (SMILES),half-life [min]
1,CC(C)C[C@H](NC(=O)[C@H](CC(C)(C)C)NC(=O)[C@H](CCC(N)=O)NC(=O)[C@H](CCCNC(=N)N)NC(=O)[C@H](CC(C)C)NC(=O)[C@H](C)NC(=O)[C@@H]1CCCN1C(=O)[C@H](CC(=O)O)NC(=O)[C@H](CCCNC(=N)N)NC(=O)[C@H](CC(C)C)NC(=O)[C@@H]1CCCN1C(=O)[C@H](C)NC(=O)[C@H](CC(=O)O)NC(=O)[C@H](Cc1c[nH]c2ccccc12)NC(=O)[C@H](CCCNC(=N)N)NC(=O)[C@@H]1CCCN1C(=O)[C@H](C)N)C(=O)O [Arb-SAR-J21],11
2,CC(C)C[C@H](NC(=O)[C@H](C)NC(=O)[C@@H]1CCCN1C(=O)[C@H](CC(=O)O)NC(=O)[C@H](CCCNC(=N)N)NC(=O)[C@H](CC(C)C)NC(=O)[C@@H]1CCCN1C(=O)[C@H](C)NC(=O)[C@H](CC(=O)O)NC(=O)[C@H](Cc1c[nH]c2ccccc12)NC(=O)[C@H](CCCNC(=N)N)NC(=O)[C@@H]1CCCN1C(=O)[C@H](C)N)C(=O)N[C@@H](CCCNC(=N)N)C(=O)N[C@@H](CCC(N)=O)C(=O)N[C@@H](CC(C)(C)C)C(=O)N[C@@H](CC(C)(C)C)C(=O)O [Arb-SAR-P22],9.96
3,"CCCC[C@@H]1NC(=O)[C@H](CCCNC(=N)N)NC(=O)[C@H](CCCNC(=N)N)NC(=O)[C@H](CC(N)=O)NC(=O)[C@H](CCC(=O)O)NC(=O)[C@@H](NC(=O)[C@H](Cc2c[nH]c3ccccc23)NC(=O)[C@H](CCCNC(=N)N)NC(C)=O)CSSC[C@@H](C(=O)N[C@@H](CCCNC(=N)N)C(=O)N[C@@H](CCC(N)=O)C(=O)N[C@H](C(=O)N[C@@H](CC(C)(C)C)C(=O)O)C(C)(C)C)NC(=O)[C@H]([C@@H](C)O)NC(=O)[C@H](Cc2ccccc2)NC1=O [Arb_cyclic_G23, RWCENRR(Nle)FTCRQ(B13)(F02)]",38.1
4,CCCC[C@H](NC(=O)[C@H](CCCNC(=N)N)NC(C)=O)C(=O)N[C@H]1CSSC[C@@H](C(=O)N[C@@H](CCCNC(=N)N)C(=O)N[C@@H](CCC(N)=O)C(=O)N[C@H](C(=O)N[C@@H](CC(C)(C)C)C(=O)O)C(C)(C)C)NC(=O)[C@H](C)NC(=O)[C@@H]2CCCN2C(=O)[C@H](CO)NC(=O)[C@H](CCCNC(=N)N)NC(=O)[C@H]([C@@H](C)CC)NC(=O)[C@@H]2CCCN2C(=O)CNC1=O [Arb_cyclic_G10],112
5,CCCC[C@H](NC(=O)[C@@H]1CSSC[C@H](NC(=O)[C@H](Cc2c[nH]cn2)NC(=O)[C@H](Cc2ccccc2)NC(=O)[C@H](CC(N)=O)NC(=O)[C@H](CCCNC(=N)N)NC(C)=O)C(=O)N[C@@H](CCCNC(=N)N)C(=O)N[C@@H](C)C(=O)N[C@@H](CCC(N)=O)C(=O)N1)C(=O)N[C@@H](CCCNC(=N)N)C(=O)N[C@@H](CCC(N)=O)C(=O)N[C@H](C(=O)N[C@@H](CC(C)(C)C)C(=O)O)C(C)(C)C [Arb_cyclic_D21],13.5
6,CC(=O)N[C@@H](CCCNC(=N)N)C(=O)N[C@@H](CC(=O)O)C(=O)N[C@H]1CSSC[C@@H](C(=O)N[C@@H](CCCNC(=N)N)C(=O)N[C@@H](CCC(N)=O)C(=O)N[C@H](C(=O)N[C@@H](CC(C)(C)C)C(=O)O)C(C)(C)C)NC(=O)[C@@H]2CCCN2C(=O)[C@@H]2CCCN2C(=O)[C@H](C)NC(=O)[C@H](CCCNC(=N)N)NC(=O)[C@H](CC(C)C)NC(=O)[C@H](CO)NC(=O)[C@H](C)NC1=O [Arb_cyclic_G2],20.8
7,CCCC[C@H](NC(=O)[C@H](CCC(N)=O)NC(=O)[C@H](CCCNC(=N)N)NC(=O)[C@H](CC(C)C)NC(=O)[C@H](C)NC(=O)[C@@H]1CCCN1C(=O)[C@H](CC(=O)O)NC(=O)[C@H](CCCNC(=N)N)NC(=O)[C@H](CC(C)C)NC(=O)[C@@H]1CCCN1C(=O)[C@H](C)NC(=O)[C@H](CC(=O)O)NC(=O)[C@H](Cc1c[nH]c2ccccc12)NC(=O)[C@H](CCCNC(=N)N)NC(=O)[C@@H]1CCCN1C(=O)[C@H](C)N)C(=O)N[C@@H](CC(C)(C)C)C(=O)O [Arb-SAR-P19],11.8
8,CC(C)C[C@H](NC(=O)[C@H](C)NC(=O)[C@@H]1CCCN1C(=O)[C@H](CC(=O)O)NC(=O)[C@H](CCCNC(=N)N)NC(=O)[C@H](CC(C)C)NC(=O)[C@@H]1CCCN1C(=O)[C@H](C)NC(=O)[C@H](CC(=O)O)NC(=O)[C@H](Cc1c[nH]c2ccccc12)NC(=O)[C@H](CCCNC(=N)N)NC(=O)[C@@H]1CCCN1C(=O)[C@H](C)N)C(=O)N[C@@H](CCCNC(=N)N)C(=O)N[C@@H](CCC(N)=O)C(=O)N[C@@H](Cc1ccccc1)C(=O)N[C@@H](CC(C)(C)C)C(=O)O [Arb-SAR-P15],9.79
9,CC(=O)N[C@@H](CCCNC(=N)N)C(=O)N[C@@H](CC(=O)O)C(=O)N[C@H]1CSSC[C@@H](C(=O)N[C@@H](CCCNC(=N)N)C(=O)N[C@@H](CCC(N)=O)C(=O)N[C@H](C(=O)N[C@@H](CC(C)(C)C)C(=O)O)C(C)(C)C)NC(=O)[C@H](C(C)C)NC(=O)[C@H](CCCCN)NC(=O)[C@H](C)NC(=O)[C@H](CCCNC(=N)N)NC(=O)[C@H](CC(C)C)NC(=O)[C@H](CO)NC(=O)[C@@H]2CCCN2C1=O [Arb_cyclic_G4],38.5
10,CC(C)C[C@H](NC(=O)[C@H](C)NC(=O)[C@@H]1CCCN1C(=O)[C@H](CC(=O)O)NC(=O)[C@H](CCCNC(=N)N)NC(=O)[C@H](CC(C)C)NC(=O)[C@@H]1CCCN1C(=O)[C@H](C)NC(=O)[C@H](CC(=O)O)NC(=O)[C@H](Cc1c[nH]c2ccccc12)NC(=O)[C@H](CCCNC(=N)N)NC(=O)[C@@H]1CCCN1C(=O)[C@H](C)N)C(=O)N[C@@H](CCCNC(=N)N)C(=O)N[C@@H](CCC(N)=O)C(=O)N[C@@H](CC(C)C)C(=O)N[C@@H](CC(C)(C)C)C(=O)O [Arb-SAR-J05],10.1
11,CC(C)CC[C@H](NC(=O)[C@H](CCC(N)=O)NC(=O)[C@H](CCCNC(=N)N)NC(=O)[C@H](CC(C)C)NC(=O)[C@H](C)NC(=O)[C@@H]1CCCN1C(=O)[C@H](CC(=O)O)NC(=O)[C@H](CCCNC(=N)N)NC(=O)[C@H](CC(C)C)NC(=O)[C@@H]1CCCN1C(=O)[C@H](C)NC(=O)[C@H](CC(=O)O)NC(=O)[C@H](Cc1c[nH]c2ccccc12)NC(=O)[C@H](CCCNC(=N)N)NC(=O)[C@@H]1CCCN1C(=O)[C@H](C)N)C(=O)N[C@@H](CC(C)(C)C)C(=O)O [Arb-SAR-P17],12.8

# Same assay, conditions: male, CD-1, mouse, serum, 37° C., read-out: Murine serum stability assay, T1/2
row,Structure (SMILES),half-life [min]
1,CC(C)C[C@H](NC(=O)[C@H](CC(C)C)NC(=O)[C@H](CCC(N)=O)NC(=O)[C@H](CCCNC(=N)N)NC(=O)[C@H](CC(C)C)NC(=O)[C@H](C)NC(=O)[C@@H]1CCCN1C(=O)[C@H](Cc1ccccc1)NC(=O)[C@H](CCCNC(=N)N)NC(=O)[C@H](CC(C)C)NC(=O)[C@@H]1CCCN1C(=O)[C@H](C)NC(=O)[C@H](CC(=O)O)NC(=O)[C@H](Cc1c[nH]c2ccccc12)NC(=O)[C@H](CCCNC(=N)N)NC(=O)[C@@H]1CCCN1C(=O)[C@H](C)N)C(=O)O [Arb-SAR-C14],7.91
2,"CCCC[C@@H]1NC(=O)[C@H](CCCCN)NC(=O)[C@H](CCCNC(=N)N)NC(=O)[C@@H](NC(=O)[C@H](Cc2ccccc2)NC(=O)[C@@H](NC(=O)[C@H](CC(N)=O)NC(=O)[C@H](CCCNC(=N)N)NC(C)=O)[C@@H](C)CC)CSSC[C@@H](C(=O)N[C@@H](CCC(=O)O)C(=O)N[C@@H](CCCNC(=N)N)C(=O)N[C@@H](CCC(N)=O)C(=O)N[C@H](C(=O)N[C@@H](CC(C)(C)C)C(=O)O)C(C)(C)C)NC1=O [Arb_cyclic_D24, RNIFCRK(Nle)CERQ(B13)(F02)]",80.7
